Measured values taken from the supplement of paper PMC10307832.

Assays:
Assay in all cases: relative viability (nuclei count vs DMSO), 5 days (fraction); higher = more cells survive
A549 = system: A549
Procedure, shortened: (§1)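 One day after seeding in 1536-well plates, lung cancer cell lines were dosed by pin tool. Dosing was either single-drug or a fixed anchor-drug dose plus five library-drug doses (not always all listed) in √10 steps. After 5 days, nuclei were stained in one fix-and-stain step and counted on 4× images, and relative viability is the nuclei count of treated wells over that of vehicle wells, given as the median of duplicate plates.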

NCI-H1666 = system: NCI-H1666
Procedure, shortened: as §1

LC-2-ad = system: LC-2-ad
Procedure, shortened: as §1

EKVX = system: EKVX
Procedure, shortened: as §1

NCI-H1648 = system: NCI-H1648
Procedure, shortened: as §1

ChaGo-K-1 = system: ChaGo-K-1
Procedure, shortened: as §1

CCNC(=O)c1noc(-c2cc(C(C)C)c(O)cc2O)c1-c1ccc(CN2CCOCC2)cc1 [Luminespib] + Nc1ncn([C@H]2C[C@H](O)[C@@H](CO)O2)c(=O)n1 [Decitabine] (partner 2 µM)
relative viability (A549; first compound 0.002 µM): 0.232
relative viability (A549; first compound 0.006325 µM): 0.297
relative viability (A549; first compound 0.02 µM): 0.191
relative viability (A549; first compound 0.06325 µM): 0.0306
relative viability (A549; first compound 0.2 µM): 0.0224
relative viability (NCI-H1666; first compound 0.002 µM): 0.701
relative viability (NCI-H1666; first compound 0.006325 µM): 0.676
relative viability (NCI-H1666; first compound 0.02 µM): 0.715
relative viability (NCI-H1666; first compound 0.06325 µM): 0.71
relative viability (NCI-H1666; first compound 0.2 µM): 0.544
relative viability (LC-2-ad; first compound 0.002 µM): 0.886
relative viability (LC-2-ad; first compound 0.006325 µM): 0.766
relative viability (LC-2-ad; first compound 0.02 µM): 0.754
relative viability (LC-2-ad; first compound 0.06325 µM): 0.778
relative viability (LC-2-ad; first compound 0.2 µM): 0.786
relative viability (EKVX; first compound 0.002 µM): 0.38
relative viability (EKVX; first compound 0.006325 µM): 0.31
relative viability (EKVX; first compound 0.02 µM): 0.273
relative viability (EKVX; first compound 0.06325 µM): 0.253
relative viability (EKVX; first compound 0.2 µM): 0.173
relative viability (NCI-H1648; first compound 0.002 µM): 0.534
relative viability (NCI-H1648; first compound 0.006325 µM): 0.569
relative viability (NCI-H1648; first compound 0.02 µM): 0.458
relative viability (NCI-H1648; first compound 0.06325 µM): 0.489
relative viability (NCI-H1648; first compound 0.2 µM): 0.301
relative viability (ChaGo-K-1; first compound 0.002 µM): 0.544
relative viability (ChaGo-K-1; first compound 0.006325 µM): 0.492
relative viability (ChaGo-K-1; first compound 0.02 µM): 0.528
relative viability (ChaGo-K-1; first compound 0.06325 µM): 0.522
relative viability (ChaGo-K-1; first compound 0.2 µM): 0.535

CCNC(=O)c1noc(-c2cc(C(C)C)c(O)cc2O)c1-c1ccc(CN2CCOCC2)cc1 [Luminespib] + CC(=O)c1c(C)c2cnc(Nc3ccc(N4CCNCC4)cn3)nc2n(C2CCCC2)c1=O [Palbociclib] (partner 0.5 µM)
relative viability (NCI-H1666; first compound 0.002 µM): 0.647
relative viability (NCI-H1666; first compound 0.006325 µM): 0.67
relative viability (NCI-H1666; first compound 0.02 µM): 0.673
relative viability (NCI-H1666; first compound 0.06325 µM): 0.705
relative viability (NCI-H1666; first compound 0.2 µM): 0.655
relative viability (LC-2-ad; first compound 0.002 µM): 0.473
relative viability (LC-2-ad; first compound 0.006325 µM): 0.486
relative viability (LC-2-ad; first compound 0.02 µM): 0.556
relative viability (LC-2-ad; first compound 0.06325 µM): 0.478
relative viability (LC-2-ad; first compound 0.2 µM): 0.331
relative viability (EKVX; first compound 0.002 µM): 0.431
relative viability (EKVX; first compound 0.006325 µM): 0.364
relative viability (EKVX; first compound 0.02 µM): 0.184
relative viability (EKVX; first compound 0.06325 µM): 0.342
relative viability (EKVX; first compound 0.2 µM): 0.138
relative viability (NCI-H1648; first compound 0.002 µM): 0.216
relative viability (NCI-H1648; first compound 0.006325 µM): 0.336
relative viability (NCI-H1648; first compound 0.02 µM): 0.246
relative viability (NCI-H1648; first compound 0.06325 µM): 0.361
relative viability (NCI-H1648; first compound 0.2 µM): 0.387
relative viability (ChaGo-K-1; first compound 0.002 µM): 0.813
relative viability (ChaGo-K-1; first compound 0.006325 µM): 0.888
relative viability (ChaGo-K-1; first compound 0.02 µM): 0.963
relative viability (ChaGo-K-1; first compound 0.06325 µM): 0.925
relative viability (ChaGo-K-1; first compound 0.2 µM): 0.82

Cc1cn(-c2cc(NC(=O)c3ccc(C)c(Nc4nccc(-c5cccnc5)n4)c3)cc(C(F)(F)F)c2)cn1 [Nilotinib] + CC(=O)Nc1cccc(-n2c(=O)n(C3CC3)c(=O)c3c(Nc4ccc(I)cc4F)n(C)c(=O)c(C)c32)c1 [Trametinib] (partner 0.02 µM)
relative viability (NCI-H1666; first compound 0.001 µM): 0.843
relative viability (NCI-H1666; first compound 0.003162 µM): 0.689
relative viability (NCI-H1666; first compound 0.01 µM): 0.638
relative viability (NCI-H1666; first compound 0.03162 µM): 0.766
relative viability (NCI-H1666; first compound 0.1 µM): 0.746
relative viability (LC-2-ad; first compound 0.001 µM): 0.876
relative viability (LC-2-ad; first compound 0.003162 µM): 1.09
relative viability (LC-2-ad; first compound 0.01 µM): 0.967
relative viability (LC-2-ad; first compound 0.03162 µM): 0.596
relative viability (LC-2-ad; first compound 0.1 µM): 0.517
relative viability (EKVX; first compound 0.001 µM): 0.336
relative viability (EKVX; first compound 0.003162 µM): 0.351
relative viability (EKVX; first compound 0.01 µM): 0.352
relative viability (EKVX; first compound 0.03162 µM): 0.355
relative viability (EKVX; first compound 0.1 µM): 0.734
relative viability (NCI-H1648; first compound 0.001 µM): 0.436
relative viability (NCI-H1648; first compound 0.003162 µM): 0.434
relative viability (NCI-H1648; first compound 0.01 µM): 0.44
relative viability (NCI-H1648; first compound 0.03162 µM): 0.331
relative viability (NCI-H1648; first compound 0.1 µM): 0.329
relative viability (ChaGo-K-1; first compound 0.001 µM): 0.824
relative viability (ChaGo-K-1; first compound 0.003162 µM): 1.15
relative viability (ChaGo-K-1; first compound 0.01 µM): 1.03
relative viability (ChaGo-K-1; first compound 0.03162 µM): 0.804
relative viability (ChaGo-K-1; first compound 0.1 µM): 0.869

Cc1csc(=NC2CCCCC2)n1/N=C/c1ccc(O)c(O)c1O [MIM1] + Nc1nc2[nH]cc(CCc3ccc(C(=O)N[C@@H](CCC(=O)O)C(=O)O)cc3)c2c(=O)[nH]1 [Pemetrexed] (partner 0.2 µM)
relative viability (NCI-H1666; first compound 0.2 µM): 0.853
relative viability (NCI-H1666; first compound 0.6325 µM): 0.848
relative viability (NCI-H1666; first compound 2 µM): 0.826
relative viability (NCI-H1666; first compound 6.325 µM): 0.666
relative viability (NCI-H1666; first compound 20 µM): 0.627
relative viability (LC-2-ad; first compound 0.2 µM): 0.293
relative viability (LC-2-ad; first compound 0.6325 µM): 0.292
relative viability (LC-2-ad; first compound 2 µM): 0.287
relative viability (LC-2-ad; first compound 6.325 µM): 0.268
relative viability (LC-2-ad; first compound 20 µM): 0.232
relative viability (EKVX; first compound 0.2 µM): 0.374
relative viability (EKVX; first compound 0.6325 µM): 0.392
relative viability (EKVX; first compound 2 µM): 0.318
relative viability (EKVX; first compound 6.325 µM): 0.287
relative viability (EKVX; first compound 20 µM): 0.29
relative viability (NCI-H1648; first compound 0.2 µM): 0.874
relative viability (NCI-H1648; first compound 0.6325 µM): 0.688
relative viability (NCI-H1648; first compound 2 µM): 0.584
relative viability (NCI-H1648; first compound 6.325 µM): 0.544
relative viability (NCI-H1648; first compound 20 µM): 0.455
relative viability (ChaGo-K-1; first compound 0.2 µM): 0.255
relative viability (ChaGo-K-1; first compound 0.6325 µM): 0.269
relative viability (ChaGo-K-1; first compound 2 µM): 0.263
relative viability (ChaGo-K-1; first compound 6.325 µM): 0.257
relative viability (ChaGo-K-1; first compound 20 µM): 0.189
